According to patent US20090264452A1 (priority 2004, published 2009):
Structures can show the parent of a compound that is named as a salt.

Target: T1, human cannabinoid CB2 receptor (Homo sapiens, UniProt P34972)
T1 construct: expressed in transfected cells; host or cells: Saccharomyces cerevisiae strain MMY23 (integration at the ura3 locus, GPD promoter)
Assay: Cannabinoid CB2 receptor agonist activity, yeast reporter assay
Assay type: cell-based
Conditions: for Emax: relative to HU210, yeast cells expressing human CB2, read-out: efficacy value (Emax) at the cloned human cannabinoid CB2 receptor; for EC50: yeast (Saccharomyces cerevisiae) cells expressing human CB2, agonist, read-out: EC50 at the cloned human cannabinoid CB2 receptor
Procedure: The cannabinoid CB2 receptor agonist activity of the compounds of formula (I) was determined in accordance with the following experimental method.
Yeast (Saccharomyces cerevisiae) cells expressing the human cannabinoid CB2 receptor were generated by integration of an expression cassette into the ura3 chromosomal locus of yeast strain MMY23. This cassette consisted of DNA sequence encoding the human CB2 receptor flanked by the yeast GPD promoter to the 5′ end of CB2 and a yeast transcriptional terminator sequence to the 3′ end of CB2. MMY23 expresses a yeast/mammalian chimeric G-protein alpha subunit in which the C-terminal 5 amino acids of Gpa1 are replaced with the C-terminal 5 amino acids of human Gαi3 (as described in Brown et al. (2000), Yeast 16:11-22). Cells were grown at 30° C. in liquid Synthetic Complete (SC) yeast media (Guthrie and Fink (1991), Methods in Enzymology, Vol. 194) lacking uracil, tryptophan, adenine and leucine to late logarithmic phase (approximately 6 OD600/ml).
Agonists were prepared as 10 mM stocks in DMSO. EC50 values (the concentration required to produce 50% maximal response) were estimated using dilutions of between 3- and 5-fold (BiomekFX, Beckman) into DMSO. Agonist solutions in DMSO (1% final assay volume) were transferred into black, clear bottom, microtitre plates from NUNC (96- or 384-well). Cells were suspended at a density of 0.2 OD600/ml in SC media lacking histidine, uracil, tryptophan, adenine and leucine and supplemented with 10 mM 3-aminotriazole, 0.1M sodium phosphate pH 7.0, and […] fluorescein di-β-D-glucopyranoside (FDGlu). This mixture (50 ul per well for 384-well plates, 200 ul per well for 96-well plates) was added to agonist in the assay plates (Multidrop 384, Labsystems). After incubation at 30° C. for 24 hours, fluorescence resulting from degradation of FDGlu to fluorescein due to exoglucanase, an endogenous yeast enzyme produced during agonist-stimulated cell growth, was determined using a Spectrofluor microtitre plate reader (Tecan; excitation wavelength: 485 nm; emission wavelength: 535 nm). Fluorescence was plotted against compound concentration an iteratively curve fitted using a four parameter fit to generate a concentration effect value. Efficacy (Emax) was calculated from the equation
Emax=Max[compound X]−Min[compound X]/Max[HU210]−Min[HU210]×100%
where Max[compound X] and Min[compound X] are the fitted maximum and minimum respectively from the concentration effect curve for compound X, and Max[HU210] and Min[HU210] are the fitted maximum and minimum respectively from the concentration effect curve for (6aR,10aR)-3-(1,1′-Dimethylheptyl)-6a,7,10,10a-tetrahydro-1-hydroxy-6,6-dimethyl-6H-dibenzo[b,d]pyran-9-methanol (HU210; available from Tocris). Equieffective molar ratio (EMR) values were calculated from the equation
Where EC50 [compound X] is the EC50 of compound X and EC50 [HU210] is the EC50 of HU210.

T1 sequence (P34972 whole entry): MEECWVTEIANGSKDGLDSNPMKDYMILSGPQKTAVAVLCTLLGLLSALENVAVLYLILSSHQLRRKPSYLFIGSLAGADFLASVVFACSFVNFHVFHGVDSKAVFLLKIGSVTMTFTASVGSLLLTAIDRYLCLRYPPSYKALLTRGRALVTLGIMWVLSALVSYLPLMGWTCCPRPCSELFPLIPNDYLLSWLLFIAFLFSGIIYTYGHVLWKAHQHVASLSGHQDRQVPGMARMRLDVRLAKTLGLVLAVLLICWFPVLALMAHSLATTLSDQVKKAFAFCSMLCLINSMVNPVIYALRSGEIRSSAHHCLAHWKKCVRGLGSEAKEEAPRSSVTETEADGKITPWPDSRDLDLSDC

Row | Structure (SMILES) | Emax [%] | EC50 [nM]
1 | CC(c1nc(Nc2cccc(Cl)c2)ncc1C(=O)NCC1CCOCC1)N(C)C (stereo not shown) [Example 5, 2-[(3-chlorophenyl)amino]-4-[1-(dimethylamino)ethyl]-N-(tetrahydro-2H-pyran-4-ylmethyl)-5-pyrimidinecarboxamide hydrochloride] | < 50 | > 1000
2 | CCc1nc(Nc2cccc(Cl)c2)ncc1C(=O)NCC1CCOCC1 [Example 4, 2-(3-Chlorophenylamino)-4-ethylpyrimidin-5-carboxylic acid (tetrahydro-pyran-4-ylmethyl)-amide] | > 50 | 300 to 1000
3 | CC(C)c1nc(Nc2cccc(Cl)c2)ncc1C(=O)NCC1CCOCC1 [Example 2, 2-(3-Chlorophenylamino)-4-isopropylpyrimidin-5-carboxylic acid (tetrahydro-pyran-4-ylmethyl)-amide] | > 50 | < 300
4 | CC(C)c1nc(Nc2cccc(Cl)c2)ncc1C(=O)NCC1CCCCC1 [Example 1] | > 50 | < 300
5 | CCc1nc(Nc2cccc(Cl)c2)ncc1C(=O)NCC1CCCCC1 [Example 3] | > 50 | < 300
